Consider 4 molecules from US4221808A, “Novel antihypertensive agent” (Richardson-Merrell Inc., priority 1979, dated 1980).

SMILES strings stand for the structures.

The subject of one experiment is α-adrenergic receptor. Kind of experiment: α-Adrenergic receptor blocking activity in isolated rabbit aortic strip, norepinephrine as agonist. It is filed as cell-based. The conditions noted are these: contractile response. The method, then: α-Adrenergic receptor blocking activity was determined in vitro by performing cumulative dose-response experiments in the isolated rabbit aortic strip preparation using norepinephrine as the agonist. The contractile response of the rabbit strip preparation in the presence of logarithmically increasing concentrations of the compounds being tested were expressed as percent of the maximal attainable response.

Experiment [1] deals with spontaneously hypertensive rats (SHR). Put plainly: Antihypertensive activity in spontaneously hypertensive rats, systolic blood pressure by tail cuff. The conditions noted are these: oral dose of 50 mg/kg. Format: in vivo, rat. The method, then:
Antihypertensive activity was determined in spontaneously hypertensive rats (SHR) of the Okomotor Aoki strain. Systolic blood pressure of the SHR was measured from the caudal artery by means of an indirect method utilizing a photocell transducer/tail cuff occluder system. Time response relationships were determined for each compound following an oral dose of 50 mg/kg. Data were expressed as mm Hg decrease from control values. Statistical significance was determined using a 2 tailed "t" test comparing drug treatment response values to those obtained from concurrent vehicle treated animals.

Experiment [2] relates to β-adrenergic receptor. Kind of experiment: β-Adrenergic receptor blocking activity in isolated guinea pig atria, isoproterenol as agonist. It is filed as cell-based. The following applies: from pA2 values, guinea pig atria (β) vs rabbit aortic strip (α). The method, then:
(§1) β-Adrenergic receptor blocking activity was determined in vitro by performing cumulative dose-response experiments in the isolated guinea pig atria preparation using isoproterenol as the agonist. The response (increase in rate) of the guinea pig atria preparation in the presence of logarithmically increasing concentration of the compounds being tested were expressed as percent of the maximal attainable response. Relative antagonistic potency was expressed as a pA2 value, as defined above.

Experiment [3] addresses T1, β-adrenergic receptor (Cavia porcellus, UniProt H0W3H1).
T1 construct: isolated guinea pig atria preparation; from tissue; host or cells: guinea pig atria (isolated)
The experiment is described as above. Format: cell-based. The following applies: isolated guinea pig atria; agonist isoproterenol; increase in rate; read-out: pA2 for β-adrenergic receptor blocking activity (converted). Here is the method:
as §1

T1 sequence (H0W3H1 1-470): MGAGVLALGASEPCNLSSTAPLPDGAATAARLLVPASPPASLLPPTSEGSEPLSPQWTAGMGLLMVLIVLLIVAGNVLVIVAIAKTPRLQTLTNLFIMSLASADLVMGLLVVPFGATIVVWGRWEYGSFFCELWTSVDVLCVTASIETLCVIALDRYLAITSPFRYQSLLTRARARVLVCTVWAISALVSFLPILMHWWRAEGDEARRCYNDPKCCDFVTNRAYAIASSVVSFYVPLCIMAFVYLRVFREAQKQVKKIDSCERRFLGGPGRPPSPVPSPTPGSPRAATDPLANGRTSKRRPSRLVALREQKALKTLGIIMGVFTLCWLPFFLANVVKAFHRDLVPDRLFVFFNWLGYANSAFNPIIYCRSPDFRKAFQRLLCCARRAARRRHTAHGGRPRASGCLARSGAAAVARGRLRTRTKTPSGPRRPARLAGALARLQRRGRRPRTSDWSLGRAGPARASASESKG

In the case of `CC(C)NCC(O)COc1cccc2ccccc12` (stereo not shown) [propranolol], the “pA2 for α-adrenergic receptor blocking activity” value (“pA2” for short) with α-adrenergic receptor was under 5. In addition, the “decrease in systolic blood pressure from control values” (“decrease in systolic blood pressure” below) in experiment [1] (after 1 hour) and in experiment [1] (after 4 hours) was “did not lower blood pressure significantly” each time.

For the molecule `COc1ccc(C(O)CNC(C)CCc2ccc3c(c2)OCO3)cc1C(N)=O.Cl` (stereo not shown) [compound 1, 5-[2-[[3-(1,3-Benzodioxol-5-yl)-1-methylpropyl]amino]-1-hydroxyethyl]-2-methoxybenzamide hydrochloride], in the experiment with β-adrenergic receptor [2], the “ratio of β/α blocking activity” value is recorded as over 2089. Moreover, on β-adrenergic receptor [3], the Kb is 0.00347 µM. For the same molecule, the “pA2” value with α-adrenergic receptor stood at 5.14. Besides, the “decrease in systolic blood pressure” value stood at 42 mm Hg in experiment [1] (after 1 hour) and 67 mm Hg in experiment [1] (after 4 hours).

`CC(CCc1ccc2c(c1)OCO2)NCC(O)c1ccc(O)c(C(N)=O)c1.Cl` (stereo not shown) [compound 2, 5-[2-[[3-(1,3-benzodioxol-5-yl)-1-methylpropyl]amino]-1-hydroxyethyl]-2-hydroxybenzamide hydrochloride]: the “ratio of β/α blocking activity” value in the experiment on β-adrenergic receptor [2] amounted to 55. At β-adrenergic receptor [3], the Kb is 0.0151 µM. Also, the “pA2” value in the experiment on α-adrenergic receptor is given as 6.08. Moreover, the “decrease in systolic blood pressure” value in experiment [1] (after 1 hour) was determined as 71 mm Hg; in experiment [1] (after 4 hours), 64 mm Hg.

Take `Cc1ccc(N(CC2=NCCN2)c2cccc(O)c2)cc1` [phentolamine]: at β-adrenergic receptor [3], the Kb is over 10 µM. The “decrease in systolic blood pressure” value in experiment [1] (after 1 hour) is on record as 62 mm Hg; in experiment [1] (after 4 hours), 60 mm Hg.
